What was measured:
Macromiidae = settings: acute; duration: 72 hours; biomass
Anas platyrhynchos = settings: short-term; oral; feed; mortality
Leuciscus idus = settings: acute; duration: 96 hours; mortality
Rattus norvegicus = settings: for NOAEL: inhalation
Coturnix japonica = settings: reproduction developmental
Colinus virginianus = settings: acute, oral, mortality
[1] = chronic, duration: 2 years, no effects
[2] = reproduction developmental, mortality
[3] = subchronic, duration: 90 days, no effects

SMILES	NOEC (Macromiidae) [mg/L]	LC50 (Anas platyrhynchos) [mg/kg]	LC50 (Leuciscus idus) [µg/mL]	LD50 (Rattus norvegicus; acute, oral, mortality) [mg/kg-day]	NOAEL (Rattus norvegicus; [1]) [mg/kg-day]	NOAEL (Rattus norvegicus; [2]) [mg/kg-day]	NOAEL (Rattus norvegicus; [3]) [mg/kg-day]	LOEC (Rattus norvegicus; subchronic, duration: 90 days, oral) [mg/kg-day]	NOEL (Coturnix japonica; F) [mg/kg-day]	NOEL (Coturnix japonica; M) [mg/kg-day]	LC50 (Colinus virginianus; diet) [mg/kg]	LD50 (Colinus virginianus) [mg/kg-day]
[PH]=[Zn].[PH]=[Zn].[Zn] [Zinc phosphide (Zn3P2)]	0.00323	2880	> 21.7	37	1.1	1.9	1.1	3.5	0.99	1.2	468	12.9
P [Phosphine]					1.1	1.9	1.1					

Reference: EPA's ToxValDB 9.5 (doi:10.2903/j.efsa.2010.1671)
